According to publication PMC6048161, “Inward-facing conformation of L-ascorbate transporter suggests an elevator mechanism” (Cell Discovery, 2018):

Assays:
[1] = molecular target: T1, ecUlaA (Escherichia coli, UniProt P39301); experiment: isothermal titration calorimetry; conditions: ITC performed as in ref. 11; detergent-purified protein; read-out: binding affinity; cited from earlier work
T1 construct: gene ulaA; homologue genes cloned in pET21b with C-terminal His8, E. coli C43(DE3)

[2] = molecular target: T2, ecUlaA (Escherichia coli, UniProt P39301, T86P); experiment: isothermal titration calorimetry; format: binding
T2 construct: gene ulaA; homologue genes cloned in pET21b with C-terminal His8, E. coli C43(DE3)

- Kd [2]: ~26.5 µM
SMILES: O=C1O[C@H]([C@@H](O)CO)C(O)=C1O [vitamin C]
- Kd [1]: 6.1 ± 0.9 µM
